Experimental data reported in patent publication US20120190687A1, “Pyrazinylpyrazoles” (Bayer CropScience Ag, priority 2009, published 2012).

Legend:
[1] = logP by reversed-phase HPLC (EEC Directive 79/831 Annex V.A8); format: physicochemical
From the text: [table] The calibration is effected with unbranched alkan-2-ones (having 3 to 16 carbon atoms) with known log P values (log P values determined on the basis of the retention times by linear interpolation between two successive alkanones).

Phaedon cochleariae = test: Phaedon test (PHAECO spray treatment); format: in vivo; details: 500 g/ha, Chinese cabbage discs, after 7 days
Method: Phaedon Test ([…] Spray Treatment) Solvent: 78.0 parts by weight of acetone • • 1.5 parts by weight of dimethylformamide Emulsifier: 0.5 part by weight of alkylaryl polyglycol ether To prepare an appropriate active ingredient preparation, 1 part by weight of active ingredient is mixed with the stated amounts of solvent and emulsifier, and the concentrate is diluted with emulsifier-containing water to the desired concentration. Discs of Chinese cabbage (Brassica pekinensis) are sprayed with an active ingredient preparation of the desired concentration and, after drying, populated with larvae of the mustard beetle (Phaedon cochleariae). After 7 days, the efficacy in % is determined. 100% means that all beetle larvae have been killed; 0% means that none of the beetle larvae have been killed.

Spodoptera frugiperda = Spodoptera frugiperda test (SPODFR spray treatment); format: in vivo; details: 500 g/ha, maize leaf discs, after 7 days
Method: Spodoptera frugiperda Test (SPODFR Spray Treatment) Solvent: 78.0 parts by weight of acetone • • 1.5 parts by weight of dimethylformamide Emulsifier: 0.5 part by weight of alkylaryl polyglycol ether To prepare an appropriate active ingredient preparation, 1 part by weight of active ingredient is mixed with the stated amounts of solvent and emulsifier, and the concentrate is diluted with emulsifier-containing water to the desired concentration. Discs of maize leaves (Zea mays) are sprayed with an active ingredient preparation of the desired concentration and, after drying, populated with caterpillars of the armyworm (Spodoptera frugiperda). After 7 days, the efficacy in % is determined. 100% means that all caterpillars have been killed; 0% means that none of the caterpillars have been killed.

Tetranychus urticae = test: Tetranychus test, OP-resistant (TETRUR spray treatment); format: in vivo; details: bean leaf discs, after 6 days
Method: Tetranychus Test, OP-resistant (TETRUR Spray Treatment)
Solvent: 78.0 parts by weight of acetone • • 1.5 parts by weight of dimethylformamide
Emulsifier: 0.5 part by weight of alkylaryl polyglycol ether
To prepare an appropriate active ingredient preparation, 1 part by weight of active ingredient is mixed with the stated amounts of solvent and emulsifier, and the concentrate is diluted with emulsifier-containing water to the desired concentration. Discs of bean leaves (Phaseolus vulgaris) infested by all stages of the red spider mite (Tetranychus urticae) are sprayed with an active ingredient preparation of the desired concentration. After 6 days, the efficacy in % is determined. 100% means that all spider mites have been killed; 0% means that none of the spider mites have been killed.

[2] = * LC-MS, acidic range, pH 2.7, 0.1% aqueous formic acid / acetonitrile
[3] = ** acidic range, pH 2.3, 0.1% aqueous phosphoric acid / acetonitrile

log P [1, 2]	SMILES	efficacy (Phaedon cochleariae)	also measured
3.29*	C[S+]([O-])c1nccnc1-n1nc(C(F)(F)F)c(-c2cc(Cl)cc(C(F)(F)F)c2)c1N (stereo not shown) [Ex. 29]	–	–
4.27*	Nc1c(-c2cc(Cl)cc(C(F)(F)F)c2)c(C(F)(F)F)nn1-c1nccnc1Br [Ex. 129]	–	–
3.19*	COc1nccnc1-n1nc(C(F)(F)F)c(-c2ccc(N(C)C)c(Cl)c2)c1N [Ex. 122]	100%	efficacy (Spodoptera frugiperda): 100%
4.32*	Cc1nccnc1-n1nc(C(F)(F)F)c(-c2cc(Cl)cc(C(F)(F)F)c2)c1N [Ex. 23]	100%	efficacy (Tetranychus urticae; 500 g/ha): 100%
3.22*	COc1nccnc1-n1nc(C(F)(F)C(F)F)c(-c2cc(Cl)c3c(c2)CCO3)c1N [Ex. 66]	100%	efficacy (Spodoptera frugiperda): 100%; efficacy (Tetranychus urticae; 500 g/ha): 90%
4.84*	CC(C)Oc1nccnc1-n1nc(C(F)(F)F)c(-c2cc(Cl)cc(C(F)(F)F)c2)c1N [Ex. 13]	83%	–
4.46*	COc1nccnc1-n1nc(C(F)(F)F)c(-c2cc(Cl)c(N(C)C)c(Cl)c2)c1N [Ex. 121]	100%	efficacy (Spodoptera frugiperda): 100%; efficacy (Tetranychus urticae; 100 g/ha): 80%
3.27*	COc1nccnc1-n1nc(C(F)(F)F)c(-c2cc3c(c(C(F)(F)F)c2)OCCO3)c1N [Ex. 173]	100%	efficacy (Spodoptera frugiperda): 100%; efficacy (Tetranychus urticae; 500 g/ha): 90%
4.28*	COc1cc(-c2c(C(F)(F)F)nn(-c3nccnc3OC)c2N)cc(C(F)(F)F)c1OC(C)C [Ex. 126]	–	–
3.66*	COc1nccnc1-n1nc(C(F)(F)F)c(-c2cc(F)c(Cl)cc2Cl)c1N [Ex. 166]	100%	efficacy (Tetranychus urticae; 500 g/ha): 90%
4.14*	COc1nccnc1-n1nc(C(F)(F)F)c(-c2cc(SCC(F)(F)F)c(Cl)cc2Cl)c1N [Ex. 179]	–	–
3.07*	COc1cc(-c2c(C(F)(F)F)nn(-c3nccnc3OC)c2N)ccc1OCC(F)(F)F [Ex. 125]	100%	efficacy (Tetranychus urticae; 500 g/ha): 90%
4.51*	CNc1c(-c2cc(Cl)cc(C(F)(F)F)c2)c(C(F)(F)F)nn1-c1nccnc1OC [Ex. 106]	–	–
3.68*	COc1nccnc1-n1nc(C(F)(F)F)c(-c2ccc3c(c2)CCC(C)(C)O3)c1N [Ex. 145]	100%	–
3.18*	COc1nccnc1-n1nc(C(F)(F)C(F)F)c(-c2cc(Cl)c3c(c2)OCO3)c1N [Ex. 65]	100%	efficacy (Spodoptera frugiperda): 100%; efficacy (Tetranychus urticae; 500 g/ha): 90%
3.88*	COc1cc(-c2c(C(F)(F)F)nn(-c3nccnc3OC)c2N)cc(Cl)c1OCC(F)(F)F [Ex. 134]	100%	efficacy (Spodoptera frugiperda): 100%
3.68*	CCOc1cc(-c2c(C(F)(F)F)nn(-c3nccnc3OC)c2N)ccc1OCC(F)(F)F [Ex. 127]	100%	efficacy (Tetranychus urticae; 500 g/ha): 90%
4.28*	CN(C)c1nccnc1-n1nc(C(F)(F)F)c(-c2cc(Cl)cc(C(F)(F)F)c2)c1N [Ex. 25]	–	–
4.43*	COc1nccnc1-n1nc(C(F)(F)F)c(-c2cc(Cl)c(Cl)c(SCC(F)(F)F)c2)c1N [Ex. 180]	–	–
4.28*	Nc1c(-c2cc(Cl)cc(C(F)(F)F)c2)c(C(F)(F)F)nn1-c1nccnc1Cl [Ex. 16]	–	–
4.54*	COc1nccnc1-n1nc(C(F)(F)F)c(-c2cc(C(F)(F)F)cc(Cl)n2)c1N [Ex. 55]	–	–
4.3*	CCOc1cc(-c2c(C(F)(F)F)nn(-c3nccnc3OC)c2N)cc(Br)c1OCC(F)(F)F [Ex. 140]	100%	efficacy (Spodoptera frugiperda): 100%
3.69*	COc1nccnc1-n1nc(C(F)(F)F)c(-c2cc(Cl)c(Cl)c([S+]([O-])CC(F)(F)F)c2)c1N (stereo not shown) [Ex. 182]	–	–

Further lines, the compound ahead of its results:

SMILES	log P [1, 2]	efficacy (Phaedon cochleariae)	also measured
Nc1c(-c2ccc(Cl)cc2)c(C(F)(F)F)nn1-c1nccnc1Cl [Ex. 7]	3.59*	–	–
Nc1c(-c2cc(Cl)cc(C(F)(F)F)c2)c(C(F)(F)F)nn1-c1cncc(Cl)n1 [Ex. 19]	5.26*	–	–
CS(=O)(=O)c1nccnc1-n1nc(C(F)(F)F)c(-c2cc(Cl)cc(C(F)(F)F)c2)c1N [Ex. 30]	3.54*	–	–
COc1nccnc1-n1nc(C(F)(F)F)c(-c2ccc(Cl)c(SC)c2Cl)c1N [Ex. 165]	4.14*	–	–
COc1nccnc1-n1nc(C(F)(F)F)c(-c2cc(Cl)cc(C(F)(F)F)c2)c1NCc1ccc(Cl)cc1 [Ex. 39]	5.51*	–	–
CCOc1nccnc1-n1nc(C(F)(F)F)c(-c2cc(Cl)cc(C(F)(F)F)c2)c1NCc1ccccc1 [Ex. 35]	5.62*	–	efficacy (Tetranychus urticae; 500 g/ha): 90%
N#Cc1nccnc1-n1nc(C(F)(F)F)c(-c2cc(Cl)cc(C(F)(F)F)c2)c1N [Ex. 27]	3.93*	100%	–
Nc1c(-c2cc(Cl)cc(C(F)(F)F)c2)c(C(F)(F)F)nn1-c1nccnc1-n1cc(F)cn1 [Ex. 45]	4.24*	–	–
Nc1c(-c2cc(Cl)cc(C(F)(F)F)c2)c(C(F)(F)F)nn1-c1nccnc1-n1cccn1 [Ex. 31]	3.94*	–	–
CCOc1nccnc1-n1nc(C(F)(F)F)c(-c2cc(Cl)cc(C(F)(F)F)c2)c1NCc1ccc(Cl)cc1 [Ex. 37]	5.84*	–	–
COc1nccnc1-n1nc(C(F)(F)C(F)F)c(-c2cc(Cl)c(Cl)c(Cl)c2)c1N [Ex. 116]	–	100%	log P [1, 3]: 4.37**; efficacy (Spodoptera frugiperda): 100%; efficacy (Tetranychus urticae; 500 g/ha): 90%
Nc1c(-c2cc(Cl)cc(Cl)c2)c(C(F)(F)F)nn1-c1nccnc1Cl [Ex. 56]	4.16*	–	–
COc1ccc(CN(Cc2ccc(OC)cc2)c2c(-c3cc(Cl)cc(C(F)(F)F)c3)c(C(F)(F)F)nn2-c2nccnc2OC)cc1 [Ex. 42]	6.25*	–	–
CCOc1nccnc1-n1nc(C(F)(F)F)c(-c2cc(Cl)cc(C(F)(F)F)c2)c1N(Cc1ccccc1)Cc1ccccc1 [Ex. 34]	7*	–	–
Cc1cnc(C)c(-n2nc(C(F)(F)F)c(-c3cc(Cl)cc(C(F)(F)F)c3)c2N)n1 [Ex. 24]	4.56*	–	–
CCOc1nccnc1-n1nc(C(F)(F)F)c(-c2cc(Cl)cc(C(F)(F)F)c2)c1N(Cc1ccc(Cl)cc1)Cc1ccc(Cl)cc1 [Ex. 36]	–	–	log P [1, 3]: 7.36**
COc1nccnc1-n1nc(C(F)(F)F)c(-c2cc(Cl)cc(C(F)(F)F)c2)c1N(C)C [compound 107, 1-(3-methoxypyrazin-2-yl)-4-[3-chloro-5-(trifluoromethyl)phenyl]-3-(trifluoromethyl)-1H-pyrazole-5-dimethylamine]	–	83%	chromatographic logP ([1]; reversed-phase HPLC column, * LC-MS, acidic range, pH 2.7, 0.1% aqueous formic acid / acetonitrile, read-out: log P): 5.11
COc1nccnc1-n1nc(C(F)(F)F)c(-c2cc(Cl)c(Cl)c(C(F)(F)F)c2)c1N [Ex. 86]	–	100%	log P [1, 3]: 4.47**; efficacy (Spodoptera frugiperda): 100%
COc1nccnc1-n1nc(C(F)(F)F)c(-c2cc(Cl)cc(C(F)(F)F)c2)c1N(Cc1ccc(Cl)cc1)Cc1ccc(Cl)cc1 [Ex. 38]	7.11*	–	–
Nc1c(-c2ccc(Cl)c(Cl)c2)c(C(F)(F)F)nn1-c1nccnc1Cl [Ex. 1]	4.02*	–	log P [1, 3]: 3.99**;
CCOc1nccnc1-n1nc(C(F)(F)F)c(-c2cc(Cl)cc(C(F)(F)F)c2)c1N(Cc1ccc(OC)cc1)Cc1ccc(OC)cc1 [Ex. 43]	6.57*	100%	efficacy (Spodoptera frugiperda): 100%
C#CCN(CC#C)c1c(-c2cc(Cl)cc(C(F)(F)F)c2)c(C(F)(F)F)nn1-c1nccnc1OC [Ex. 105]	4.91*	–	–
CCOc1nccnc1-n1nc(C(F)(F)F)c(-c2cc(Cl)cc(C(F)(F)F)c2)c1NCc1ccc(OC)cc1 [Ex. 40]	5.47*	–	–
Nc1c(-c2cc(Cl)cc(C(F)(F)F)c2)c(C(F)(F)F)nn1-c1nccnc1C(F)(F)F [Ex. 130]	4.57*	100%	efficacy (Spodoptera frugiperda): 100%
C=C(C)CNc1c(-c2cc(Cl)cc(C(F)(F)F)c2)c(C(F)(F)F)nn1-c1nccnc1OC [Ex. 96]	–	–	efficacy (Tetranychus urticae; 500 g/ha): 100%
C=C(C)CN(CC(=C)C)c1c(-c2cc(Cl)cc(C(F)(F)F)c2)c(C(F)(F)F)nn1-c1nccnc1OC [compound 104]	5.22*	–	–
COc1nccnc1-n1nc(C(F)(F)F)c(-c2cc(Cl)cc(C(F)(F)F)c2)c1N(Cc1ccccc1)Cc1ccccc1 [Ex. 32]	6.67*	–	–
Nc1c(-c2cc(Cl)cc(C(F)(F)F)c2)c(C(F)(F)F)nn1-c1nccnc1-n1ccnc1 [Ex. 44]	2.76*	100%	efficacy (Spodoptera frugiperda): 100%
